Source: patent US20150111835A1, “MODIFIED PEPTIDES AND THEIR USE FOR TREATING AUTOIMMUNE DISEASES” (CENTRE NATIONAL DE LA RECHERECHE SCIENTIFIQUE, priority 2011, published 2015)
Where a SMILES comes first, the peptide text is derived from it. [ ]: non-standard residue; d: D form. Met(O) = CS(=O)CC[C@H](N)C(=O)O; pS = N[C@@H](COP(=O)(O)O)C(=O)O

Experiments:
HSC70 protein = target: T1, HSC70 protein (Bos taurus, UniProt P19120); assay: BIAcore binding of peptides to immobilized HSC70; parameters: species or system bovine; conditions: for Rmax / KA / Kd / kd: 25° C., 1:1 Langmuir model; for Rmax: global fit; for KA / Kd / kd: same value given at each analyte concentration
T1 construct: purchased Stressgen
Procedure: BIAcore 3000 system (Biacore AB) was used to evaluate the binding of P140 peptides to HSC70 protein (Page et al., 2009, and 2011). Sensor chip CMS, surfactant P20, amine coupling kit containing N-hydroxysuccinimide (NHS) and N-ethyl-N′-dimethylaminopropyl carbodiimide (EDC), 2-(2-pyridinyldithio)ethaneamine (PDEA) and ethanolamine were from Biacore AB. Biosensor assays were performed with HBS-EP buffer as running buffer (10 mM HEPES, 150 mM NaCl, 3 mM EDTA, 0.005% surfactant P20, pH 7.4). The compounds were diluted in the running buffer. The sensor chip surface was regenerated after each experiment by injecting 10 μL of 10 mM HCl. Recombinant bovine HSC70 (Stressgen) was immobilized on flow cells of a CMS sensor chip through its thiol groups using 35 μL PDEA in 50 mM borate buffer, pH 8.3 on the NHS/EDC-activated matrix. Then, 35 μL of HSC70 (100 μg/mL in formate buffer, pH 4.3) were injected until a response of 13,000 response units (RU) corresponding to 13 ng/mm^2 of HSC70 was immobilized. Twenty μL of a 50 mM cysteine/1 M NaCl solution was used to saturate unoccupied sites on the chip. The direct binding measurement of P140 peptides to HSC70 was carried out at 25° C. with a constant flow rate of 20 μL/min. P140 peptide and analogues were injected in the flux at different concentrations for 3 min, followed by a dissociation phase of 3 min. The kinetic parameters were calculated using the BIAeval 3.1 software on a personal computer. Analysis was performed using the simple 1:1 Langmuir binding model. The specific binding profiles were obtained after subtracting the response signal from the control empty channel and from blank-buffer injection. The fitting to each model was judged by the χ^2 value and randomness of residue distribution compared to the theoretical model.

MRL/lpr mice [1] = assay: Survival analysis in MRL/lpr lupus mice; assay type: in vivo, mouse; conditions: female MRL/lpr mice, intravenous, from 5 weeks of age; NaCl control = 25 weeks
Procedure: (§1) Statistical tests were performed using GraphPad Prism version 5.0. The two-way ANOVA test was used to analyze statistical significance of proteinuria differences between control and peptide-treated groups of mice. Survival of control and P140 analogue-treated female MRL/lpr mice was analyzed by the Kaplan-Meier method, and the significance of differences was determined by the log-rank test. For the other variables, statistical significance was assessed using the Student's t-test. p values less than 0.05 were considered significant.
It has been determined that this mouse strain carries a mutation in the fas gene. Also, the MRL/lpr is a useful model to study behavioural and cognitive deficits found in autoimmune diseases and the efficacy of immunosuppressive agents [Monneaux et al., 2003, Eur. J. Immunol. 33,287-296].
Five-week-old female MRL/lpr mice received P140 or peptide P140(MO) intravenously as described (Monneaux et al., 2003, Eur. J. Immunol. 33,287-296). All experimental protocols were carried out with the approval of the local Institutional Animal Care and Use Committee (CREMEAS). As control, mice were injected with NaCl.
Twenty mice were used for each peptide or NaCl.

[2] = Stability of the peptides at 37° C. in 10% (v/v) mannitol solution, HPLC peak area of intact peptide; assay type: physicochemical; conditions: for 95% of stability (predicted): time to 95% stability from linear equation; for Linear equation of stability (%) versus days: slope: y = stability %, x = days; for Stability (%): 10% mannitol
Procedure: The stability of the peptide SEQ ID NO: 2 in which the serine at position 10 is phosphorylated and the methionine at position 4 is oxidized (P140(MO)), and the peptide SEQ ID NO: 1 in which the serine at position 10 is phosphorylated (P140) was measured at 37° C., in a solution of 10% (v/v) mannitol. For each peptide, 3 concentrations have been tested: 200, 100 and 50 μg/mL.
At the indicated time, the integrity of P140 and P140(MO) peptides was measured in saline by high-performance liquid chromatography from the area of the peak corresponding to the intact peptide.
Stability is measured by using the HPLC peak surface.

MRL/lpr mice [3] = assay: Proteinuria analysis in MRL/lpr mice (Albustix); assay type: in vivo, mouse; conditions: fresh urine, Albustix score over time (FIG. 3)
Procedure: as §1
Proteinuria of the above mice was measured in fresh urine using Albustix (Bayer Diagnostics) and was semi-quantitatively estimated according to a […] recommended by the manufacturer (no proteinuria=0; traces=1; 1+=2; 2+=3; 3+=4; 4+=5).

MRL/lpr mice [4] = assay: Cellularity analysis (peripheral blood leucocytes) in MRL/lpr mice; assay type: in vivo, mouse; conditions: 100 μg/100 μL single injection, peripheral blood 5 days after, efficacy at least similar to P140
Procedure: MRL/lpr mice were injected with 100 μg/100 μL of P140 or P140(MO) and cellularity (peripheral blood) was studied 5 days after this unique injection. The count includes all the leucocytes. In view of the low number of tested mice, a non parametric statistical test has been realised Mann-Whitney).

T1 sequence (P19120 whole entry): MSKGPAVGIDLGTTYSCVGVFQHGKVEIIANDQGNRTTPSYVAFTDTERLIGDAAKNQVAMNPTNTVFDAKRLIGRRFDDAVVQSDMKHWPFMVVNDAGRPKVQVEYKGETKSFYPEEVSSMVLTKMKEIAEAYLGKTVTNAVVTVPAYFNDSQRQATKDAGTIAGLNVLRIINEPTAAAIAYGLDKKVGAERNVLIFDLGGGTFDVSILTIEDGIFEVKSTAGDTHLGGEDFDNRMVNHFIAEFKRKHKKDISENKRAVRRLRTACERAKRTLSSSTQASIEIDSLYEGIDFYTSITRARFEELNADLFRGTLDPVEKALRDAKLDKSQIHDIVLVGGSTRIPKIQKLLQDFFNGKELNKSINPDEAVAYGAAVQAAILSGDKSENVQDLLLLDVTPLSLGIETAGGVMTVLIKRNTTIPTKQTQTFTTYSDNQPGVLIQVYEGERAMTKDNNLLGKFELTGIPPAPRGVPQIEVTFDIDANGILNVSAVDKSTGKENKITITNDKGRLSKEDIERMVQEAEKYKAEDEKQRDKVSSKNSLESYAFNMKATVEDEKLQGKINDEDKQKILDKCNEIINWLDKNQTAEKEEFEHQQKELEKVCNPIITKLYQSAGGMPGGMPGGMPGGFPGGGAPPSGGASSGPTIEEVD

| SMILES | Rmax (HSC70 protein; BIAcore) [RU] | KA (HSC70 protein; BIAcore) [M⁻¹] | Kd (HSC70 protein; BIAcore) [µM] | kd (HSC70 protein; BIAcore) [s⁻¹] | Req (HSC70 protein; peptide 1.56 μM) [RU] | kobs (HSC70 protein; peptide 1.56 μM) [s⁻¹] | Req (HSC70 protein; peptide 3.12 μM) [RU] | kobs (HSC70 protein; peptide 3.12 μM) [s⁻¹] | Req (HSC70 protein; peptide 6.25 μM) [RU] | kobs (HSC70 protein; peptide 6.25 μM) [s⁻¹] | Req (HSC70 protein; peptide 12.5 μM) [RU] | kobs (HSC70 protein; peptide 12.5 μM) [s⁻¹] | Req (HSC70 protein; peptide 25 μM) [RU] | kobs (HSC70 protein; peptide 25 μM) [s⁻¹] | Median survival (MRL/lpr mice [1]) [weeks] | 95% of stability (predicted) ([2]; 50 μg/mL, 37° C.) | Linear equation of stability (%) versus days: slope ([2]; 50 μg/mL, 37° C.) | Stability (%) ([2]; 50 μg/mL, day 0, 37° C.) | Stability (%) ([2]; 50 μg/mL, day 20, 37° C.) | Stability (%) ([2]; 50 μg/mL, day 40, 37° C.) | also measured |
| --- | --- | --- | --- | --- | --- | --- | --- | --- | --- | --- | --- | --- | --- | --- | --- | --- | --- | --- | --- | --- | --- |
| CC[C@H](C)[C@H](NC(=O)[C@H](Cc1ccccc1)NC(=O)[C@H](C)NC(=O)[C@H](Cc1ccc(O)cc1)NC(=O)CNC(=O)[C@H](CCCNC(=N)N)NC(=O)[C@@H]1CCCN1C(=O)[C@H](CCCCN)NC(=O)CNC(=O)[C@H](COP(=O)(O)O)NC(=O)[C@H](CCCNC(=N)N)NC(=O)[C@H](CCCCN)NC(=O)[C@H](CO)NC(=O)[C@H](Cc1ccc(O)cc1)NC(=O)[C@@H](NC(=O)[C@H](CCSC)NC(=O)[C@H](Cc1c[nH]cn1)NC(=O)[C@@H](NC(=O)[C@@H](N)CCCNC(=N)N)[C@@H](C)CC)C(C)C)C(=O)N[C@@H](CCC(=O)O)C(=O)N[C@@H](Cc1ccc(O)cc1)C(=O)O [Compound P140] (H-RIHMVYSKR[pS]GKPRGYAFIEY-OH) | 83.3 | 144000 | 6.94 | 0.00312 | 15.3 | 0.00382 | 25.8 | 0.00452 | 39.5 | 0.00593 | 53.6 | 0.00874 | 65.2 | 0.0144 | 29 | 1 months | y = −0.099x + | 100 | 95.5 | 93.2 | Stability (%) ([2]; 50 μg/mL, day 60, 37° C.): 91.5%; Stability (%) ([2]; 50 μg/mL, day 80, 37° C.): 90.3%; Stability (%) ([2]; 50 μg/mL, day 100, 37° C.): 89.6%; 95% of stability (predicted) ([2]; 100 μg/mL, 37° C.): 2 months; Linear equation of stability (%) versus days: slope ([2]; 100 μg/mL, 37° C.): y = −0.0612x +; Stability (%) ([2]; 100 μg/mL, day 0, 37° C.): 100%; Stability (%) ([2]; 100 μg/mL, day 20, 37° C.): 97.5%; Stability (%) ([2]; 100 μg/mL, day 40, 37° C.): 96.2%; Stability (%) ([2]; 100 μg/mL, day 60, 37° C.): 95.5%; Stability (%) ([2]; 100 μg/mL, day 80, 37° C.): 94.5%; Stability (%) ([2]; 100 μg/mL, day 100, 37° C.): 93.4%; 95% of stability (predicted) ([2]; 200 μg/mL, 37° C.): 6 months; Linear equation of stability (%) versus days: slope ([2]; 200 μg/mL, 37° C.): y = −0.0238x +; Stability (%) ([2]; 200 μg/mL, day 0, 37° C.): 100%; Stability (%) ([2]; 200 μg/mL, day 20, 37° C.): 98.7%; Stability (%) ([2]; 200 μg/mL, day 40, 37° C.): 98.5%; Stability (%) ([2]; 200 μg/mL, day 60, 37° C.): 97.9%; Stability (%) ([2]; 200 μg/mL, day 80, 37° C.): 97.6%; Stability (%) ([2]; 200 μg/mL, day 100, 37° C.): 97.4% |
| CC[C@H](C)[C@H](NC(=O)[C@H](Cc1ccccc1)NC(=O)[C@H](C)NC(=O)[C@H](Cc1ccc(O)cc1)NC(=O)CNC(=O)[C@H](CCCNC(=N)N)NC(=O)[C@@H]1CCCN1C(=O)[C@H](CCCCN)NC(=O)CNC(=O)[C@H](COP(=O)(O)O)NC(=O)[C@H](CCCNC(=N)N)NC(=O)[C@H](CCCCN)NC(=O)[C@H](CO)NC(=O)[C@H](Cc1ccc(O)cc1)NC(=O)[C@@H](NC(=O)[C@H](CC[S+](C)[O-])NC(=O)[C@H](Cc1c[nH]cn1)NC(=O)[C@@H](NC(=O)[C@@H](N)CCCNC(=N)N)[C@@H](C)CC)C(C)C)C(=O)N[C@@H](CCC(=O)O)C(=O)N[C@@H](Cc1ccc(O)cc1)C(=O)O (some centres unmarked) [P140(MO), RIHM(O)VYSKRS(PO3H2)GKPRGYAFIEY] (H-RIH[Met(O)]VYSKR[pS]GKPRGYAFIEY-OH) | 39 | 524000 | 1.91 | 0.0022 | 17.6 | 0.004 | 24.2 | 0.0058 | 29.9 | 0.0094 | 33.9 | 0.0166 | 36.3 | 0.031 | > 40 | 2 years | y = −0.0064x + | 100 | 100 | 100 | Affinity for HSC70 compared with P140 (non-oxidized counterpart) (HSC70 protein; BIAcore): not statistically different; Proteinuria compared to untreated mice (MRL/lpr mice [3]): less important and appears lately; Stability (%) ([2]; 50 μg/mL, day 100, 37° C.): 99.4%; Linear equation of stability (%) versus days: slope ([2]; 100 μg/mL, 37° C.): y = −0.0064x +; Stability (%) ([2]; 100 μg/mL, day 0, 37° C.): 100%; Stability (%) ([2]; 100 μg/mL, day 20, 37° C.): 99.1%; Stability (%) ([2]; 100 μg/mL, day 40, 37° C.): 99.5%; Stability (%) ([2]; 100 μg/mL, day 100, 37° C.): 99.1%; 95% of stability (predicted) ([2]; 200 μg/mL, 37° C.): ∞; Stability (%) ([2]; 200 μg/mL, day 0, 37° C.): 100%; Stability (%) ([2]; 200 μg/mL, day 20, 37° C.): 100%; Stability (%) ([2]; 200 μg/mL, day 40, 37° C.): 100%; Stability (%) ([2]; 200 μg/mL, day 100, 37° C.): 100%; Stability over 100 days (in words) ([2]; all tested concentrations (50 to 200 μg/ml), 37° C.): stable; Peripheral hypercellularity (MRL/lpr mice [4]): able to decrease peripheral hypercellularity |
